The structures appear in SMILES notation.

For this assay, the target named is T1, human Cav3.2 channels (Homo sapiens, UniProt O95180).
T1 construct: human Cav3.2 channel ORF (Open Reading Frame) gene; expressed in transfected cells; host or cells: HEK293 cells (ATCC No. CRL-1573), pcDNA3.1(+) plasmid
In words: T-type calcium blocking action: intracellular calcium (Fluo-4 AM fluorescence) in HEK293 cells steadily expressing human Cav3.2 channels. The class given is cell-based. The following applies: HEK293 cells expressing human Cav3.2; KCl-stimulated calcium influx, Fluo-4 fluorescence; Tables 1 to 3. Put shortly: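 Fluo-4 AM-loaded stable HEK293 cells were preincubated 15 min at RT with compound (0.1% DMSO final) in choline-based buffer (pH 7.3). Gramicidin was added, then KCl-induced calcium influx was read at 485/510 nm for 10 s. Percent block came from peak rise over baseline, and IC50 from log-concentration plots.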
(Calcium assays in cells follow changes in intracellular calcium, usually with a dye or a luminescent sensor.)

T1 sequence (O95180 whole entry): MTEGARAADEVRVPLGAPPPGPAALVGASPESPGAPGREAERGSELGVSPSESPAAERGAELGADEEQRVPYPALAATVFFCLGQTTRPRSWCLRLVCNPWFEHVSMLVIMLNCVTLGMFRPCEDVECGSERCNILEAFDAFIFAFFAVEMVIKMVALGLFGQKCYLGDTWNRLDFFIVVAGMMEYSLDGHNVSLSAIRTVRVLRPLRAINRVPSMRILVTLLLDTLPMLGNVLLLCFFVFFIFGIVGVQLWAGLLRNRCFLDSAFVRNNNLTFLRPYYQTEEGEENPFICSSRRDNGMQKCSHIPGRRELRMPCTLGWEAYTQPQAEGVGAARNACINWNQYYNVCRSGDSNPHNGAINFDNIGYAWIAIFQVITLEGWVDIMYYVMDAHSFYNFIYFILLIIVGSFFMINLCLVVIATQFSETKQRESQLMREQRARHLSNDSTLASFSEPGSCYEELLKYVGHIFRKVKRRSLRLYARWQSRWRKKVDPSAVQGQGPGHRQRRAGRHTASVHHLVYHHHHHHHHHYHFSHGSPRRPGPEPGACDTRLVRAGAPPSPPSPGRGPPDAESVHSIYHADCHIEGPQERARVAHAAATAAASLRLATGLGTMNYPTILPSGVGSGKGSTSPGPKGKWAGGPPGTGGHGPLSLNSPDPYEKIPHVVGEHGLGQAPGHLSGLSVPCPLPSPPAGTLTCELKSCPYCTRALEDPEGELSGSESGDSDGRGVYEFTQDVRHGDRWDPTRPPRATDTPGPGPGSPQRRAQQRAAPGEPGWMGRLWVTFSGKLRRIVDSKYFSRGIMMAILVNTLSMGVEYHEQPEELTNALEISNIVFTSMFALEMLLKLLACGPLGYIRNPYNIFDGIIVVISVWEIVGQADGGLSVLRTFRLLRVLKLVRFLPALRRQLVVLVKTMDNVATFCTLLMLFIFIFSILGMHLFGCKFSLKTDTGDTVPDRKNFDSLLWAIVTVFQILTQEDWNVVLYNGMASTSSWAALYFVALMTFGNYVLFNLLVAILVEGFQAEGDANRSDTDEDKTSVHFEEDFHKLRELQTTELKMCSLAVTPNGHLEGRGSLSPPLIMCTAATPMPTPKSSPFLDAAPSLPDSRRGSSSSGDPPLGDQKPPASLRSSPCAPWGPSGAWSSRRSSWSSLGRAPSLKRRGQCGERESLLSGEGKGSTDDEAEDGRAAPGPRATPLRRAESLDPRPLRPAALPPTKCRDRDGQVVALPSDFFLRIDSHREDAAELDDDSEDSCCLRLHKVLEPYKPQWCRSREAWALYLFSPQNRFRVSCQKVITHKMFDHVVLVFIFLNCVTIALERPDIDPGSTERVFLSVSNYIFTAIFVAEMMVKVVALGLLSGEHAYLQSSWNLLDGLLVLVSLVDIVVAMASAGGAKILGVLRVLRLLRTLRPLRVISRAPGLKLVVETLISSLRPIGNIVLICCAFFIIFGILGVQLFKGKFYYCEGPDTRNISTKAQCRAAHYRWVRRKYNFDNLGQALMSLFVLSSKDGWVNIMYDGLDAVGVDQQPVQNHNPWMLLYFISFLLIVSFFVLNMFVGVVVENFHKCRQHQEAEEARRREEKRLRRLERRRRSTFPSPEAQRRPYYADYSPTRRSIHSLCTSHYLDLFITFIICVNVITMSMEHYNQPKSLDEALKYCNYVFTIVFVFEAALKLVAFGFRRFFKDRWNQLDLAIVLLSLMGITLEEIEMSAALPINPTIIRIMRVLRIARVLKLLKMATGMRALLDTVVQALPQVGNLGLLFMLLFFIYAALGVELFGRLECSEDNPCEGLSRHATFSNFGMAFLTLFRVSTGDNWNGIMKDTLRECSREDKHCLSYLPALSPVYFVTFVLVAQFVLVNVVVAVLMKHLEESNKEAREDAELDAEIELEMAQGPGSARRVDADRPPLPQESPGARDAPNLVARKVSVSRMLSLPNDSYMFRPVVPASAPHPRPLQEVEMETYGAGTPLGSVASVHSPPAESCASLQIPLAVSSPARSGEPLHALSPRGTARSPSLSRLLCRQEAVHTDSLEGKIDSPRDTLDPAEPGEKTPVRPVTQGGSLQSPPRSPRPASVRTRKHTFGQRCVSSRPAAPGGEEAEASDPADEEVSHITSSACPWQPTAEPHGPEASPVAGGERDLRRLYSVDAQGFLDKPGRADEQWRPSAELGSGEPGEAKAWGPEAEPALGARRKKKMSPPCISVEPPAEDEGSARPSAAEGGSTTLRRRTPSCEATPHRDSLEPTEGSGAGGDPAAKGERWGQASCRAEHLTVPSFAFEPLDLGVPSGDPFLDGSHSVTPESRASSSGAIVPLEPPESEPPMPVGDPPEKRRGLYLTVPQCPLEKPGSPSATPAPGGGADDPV

For the compound `[2H]C([2H])(C(=O)N[C@@H]1CCN(c2cncc(C(F)(F)F)c2)C1)c1ccc(C(F)(F)F)cc1` [Example 83, (R)-2-(4-(trifluoromethyl)phenyl)-N-(1-(5-(trifluoromethyl)pyridin-3-yl)pyrrolidin-3-yl)acetamide-2,2-d2], the IC50 (as a rule, the concentration needed to halve the response being measured) turned out to be 82 nM.
`O=C(Cc1ccc(N2CCC(F)(F)C2)cc1)N[C@@H]1CCN(c2ccc(C(F)(F)F)nc2)C1` [Example 84, (R)-2-(4-(3,3-difluoropyrrolidin-1-yl)phenyl)-N-(1-(6-(trifluoromethyl)pyridin-3-yl)pyrrolidin-3-yl)acetamide]: the IC50 worked out at 180 nM.
On to `O=C(Cc1ccc2cc[nH]c2c1)N[C@@H]1CCN(c2ccc(C(F)(F)F)nc2)C1` [Example 85, (R)-2-(1H-indol-6-yl)-N-(1-(6-(trifluoromethyl)pyridin-3-yl)pyrrolidin-3-yl)acetamide], for which the half-inhibitory concentration (IC50) came to 110 nM.
As for `C[C@@H]1CN(c2ccc(CC(=O)N[C@@H]3CCN(c4cncc(C(F)(F)F)c4)C3)cc2)C[C@H](C)O1` [Example 86, 2-(4-((2R,6S)-2,6-dimethylmorpholino)phenyl)-N—((R)-1-(5-(trifluoromethyl)pyridin-3-yl)pyrrolidin-3-yl) acetamide], the figure is 370 nM.
As for `O=C(Cc1ccc(N2CCCC2)cc1)N[C@@H]1CCN(c2cncc(C(F)(F)F)c2)C1` [Example 87, (R)-2-(4-(pyrrolidin-1-yl)phenyl)-N-(1-(5-(trifluoromethyl)pyridin-3-yl)pyrrolidin-3-yl)acetamide], the figure is 5.4 nM; as for `COCCN(C)c1ccc(CC(=O)N[C@@H]2CCN(c3cncc(C(F)(F)F)c3)C2)cc1` [Example 88, (R)-2-(4-((2-methoxyethyl)(methyl)amino)phenyl)-N-(1-(5-(trifluoromethyl)pyridin-3-yl)pyrrolidin-3-yl)acetamide], 19 nM; as for `O=C(Cc1ccc(C(F)(F)F)cc1)NC1CN(c2cncc(C(F)(F)F)c2)C1` [Example 89, 2-(4-(Trifluoromethyl)phenyl)-N-(1-(5-(trifluoromethyl)pyridin-3-yl)azetidin-3-yl)acetamide], 430 nM.
As for `O=C(Cc1ccc2cc[nH]c2c1)NC1CN(c2cncc(C(F)(F)F)c2)C1` [Example 90, 2-(1H-indol-6-yl)-N-(1-(5-(trifluoromethyl)pyridin-3-yl)azetidin-3-yl)acetamide], the figure is 130 nM; as for `Cn1ccc2ccc(CC(=O)N[C@@H]3CCN(c4cncc(C(F)(F)F)c4)C3)cc21` [Example 91, (R)-2-(1-methyl-1H-indol-6-yl)-N-(1-(5-(trifluoromethyl)pyridin-3-yl)pyrrolidin-3-yl)acetamide], 32 nM; as for `Cn1ccc2ccc(CC(=O)N[C@@H]3CCN(c4ccc(C(F)(F)F)nc4)C3)cc21` [Example 92, (R)-2-(1-methyl-1H-indol-6-yl)-N-(1-(6-(trifluoromethyl)pyridin-3-yl)pyrrolidin-3-yl)acetamide], 72 nM.
In the case of `CN1CCN(c2ccc(CC(=O)N[C@@H]3CCN(c4cncc(C(F)(F)F)c4)C3)cc2)CC1` [Example 93, (R)-2-(4-(4-methylpiperazin-1-yl)phenyl)-N-(1-(5-(trifluoromethyl)pyridin-3-yl)pyrrolidin-3-yl)acetamide], the IC50 is 340 nM.
As for `O=C(Cc1ccc(N2CCNCC2)cc1)N[C@@H]1CCN(c2cncc(C(F)(F)F)c2)C1` [Example 94, (R)-2-(4-(piperazin-1-yl)phenyl)-N-(1-(5-(trifluoromethyl)pyridin-3-yl)pyrrolidin-3-yl)acetamide], the figure is 910 nM.
Take `CC(=O)N1CCN(c2ccc(CC(=O)N[C@@H]3CCN(c4cncc(C(F)(F)F)c4)C3)cc2)CC1` [Example 95, (R)-2-(4-(4-acetylpiperazin-1-yl)phenyl)-N-(1-(5-(trifluoromethyl)pyridin-3-yl)pyrrolidin-3-yl)acetamide]: the 50% inhibitory concentration (IC50) came to 230 nM.

These data come from patent US20220226299A1 (NIPPON CHEMIPHAR CO., LTD., priority 2019, published 2022).
